Laboratory results published in article PMC8515367 (ACS Omega, 2021).
Changes are numbered by the printed parent chain. Several values for one entry are separate records, joined by “and”; a condition that tells them apart may be missing. Identical values can stand only once. Like-named read-outs stand apart in the source and are kept apart here.

Columns and labels:
[1] = system: T113V mutants of ecDHFR; conditions: cited from earlier work
[2] = target: T1, M42F/G121S-ecDHFR (Escherichia coli, UniProt P0ABQ4, G121S/M42F); assay: Ligand-binding assay, tryptophan fluorescence titration
T1 sequence (P0ABQ4 1-159 M42F/G121S): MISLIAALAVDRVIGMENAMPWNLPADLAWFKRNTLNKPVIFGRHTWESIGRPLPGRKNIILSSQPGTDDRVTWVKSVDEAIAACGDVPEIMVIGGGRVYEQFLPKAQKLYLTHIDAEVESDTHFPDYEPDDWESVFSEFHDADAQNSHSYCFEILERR

[3] = target: T2, G121V-ecDHFR (Escherichia coli, UniProt P0ABQ4, G121V); conditions: cited from earlier work
T2 sequence (P0ABQ4 1-159 G121V): T1 sequence (P0ABQ4 1-159 M42F/G121S) with F42M, S121V

[4] = target: T3, M42F/G121V-ecDHFR (Escherichia coli, UniProt P0ABQ4, G121V/M42F); assay: Double-mutant cycle analysis of ligand binding; conditions: A′ = M42F, B′ = G121V
T3 sequence (P0ABQ4 1-159 M42F/G121V): T1 sequence (P0ABQ4 1-159 M42F/G121S) with S121V

[5] = target: T4, M42F-ecDHFR (Escherichia coli, UniProt P0ABQ4, M42F); assay: Ligand-binding assay, tryptophan fluorescence titration
T4 sequence (P0ABQ4 1-159 M42F): T1 sequence (P0ABQ4 1-159 M42F/G121S) with S121G

[6] = target: T5, G121S-ecDHFR (Escherichia coli, UniProt P0ABQ4, G121S); assay: as above
T5 sequence (P0ABQ4 1-159 G121S): T1 sequence (P0ABQ4 1-159 M42F/G121S) with F42M

[7] = target: T5, G121S-ecDHFR; conditions: cited from earlier work
[8] = target: T2, G121V-ecDHFR; assay: Ligand-binding assay, tryptophan fluorescence titration
[9] = target: T6, T113V/G121V-ecDHFR (Escherichia coli, UniProt P0ABQ4, G121V/T113V); assay: Double-mutant cycle analysis of ligand binding; conditions: A′ = T113V, B′ = G121V
T6 sequence (P0ABQ4 1-159 T113V/G121V): T1 sequence (P0ABQ4 1-159 M42F/G121S) with F42M, T113V, S121V

[10] = target: T3, M42F/G121V-ecDHFR; assay: Ligand-binding assay, tryptophan fluorescence titration
[11] = target: T1, M42F/G121S-ecDHFR; assay: Double-mutant cycle analysis of ligand binding; conditions: A′ = M42F, B′ = G121S
[12] = target: T7, T113V-ecDHFR (Escherichia coli, UniProt P0ABQ4, T113V); assay: Ligand-binding assay, tryptophan fluorescence titration
T7 sequence (P0ABQ4 1-159 T113V): T1 sequence (P0ABQ4 1-159 M42F/G121S) with F42M, T113V, S121G

[13] = target: T8, wildtype ecDHFR (Escherichia coli, UniProt P0ABQ4); conditions: read-out: KD^NADPH, previous reports; cited from earlier work
T8 sequence (P0ABQ4 1-159): T1 sequence (P0ABQ4 1-159 M42F/G121S) with F42M, S121G

[14] = target: T6, T113V/G121V-ecDHFR; assay: Ligand-binding assay, tryptophan fluorescence titration
[15] = target: T9, T113V/G121S-ecDHFR (Escherichia coli, UniProt P0ABQ4, G121S/T113V); assay: as above
T9 sequence (P0ABQ4 1-159 T113V/G121S): T1 sequence (P0ABQ4 1-159 M42F/G121S) with F42M, T113V

[16] = target: T9, T113V/G121S-ecDHFR; assay: Double-mutant cycle analysis of ligand binding; conditions: A′ = T113V, B′ = G121S
[17] = target: T8, wildtype ecDHFR; assay: Ligand-binding assay, tryptophan fluorescence titration

Nc1nc(=O)c2c([nH]1)NCC(CNc1ccc(C(=O)N[C@@H](CCC(=O)O)C(=O)O)cc1)=N2 [H2F, 7,8-dihydrofolate]
decrease in H2F-binding affinity [1]: 20–30 fold

NC(=O)C1=CN([C@@H]2O[C@H](COP(=O)(O)OP(=O)(O)OC[C@H]3O[C@@H](n4cnc5c(N)ncnc54)[C@H](OP(=O)(O)O)[C@@H]3O)[C@@H](O)[C@H]2O)C=CC1 [NADPH, nicotinamide adenine dinucleotide phosphate]
Kd [2]: 116 ± 20.1 µM | NADPH binding weakened [3]: 40 fold | ΔG1 [4]: 8.20 kcal/mol | ΔG2 [4]: 5.69 kcal/mol | ΔG′1 [4]: 4.45 kcal/mol | ΔG′2 [4]: 1.95 kcal/mol | ΔΔG [4]: –3.75 kcal/mole | Kd [5]: 33.6 ± 2.67 µM | Kd [6]: 9.73 ± 2.4 µM | NADPH binding weakened [7]: 10 fold | Kd [8]: 12.2 ± 1.41 µM | ΔG1 [9]: 5.98 kcal/mol | ΔG2 [9]: 5.69 kcal/mol | ΔG′1 [9]: 5.99 kcal/mol | ΔG′2 [9]: 5.71 kcal/mol | ΔΔG [9]: 0.02 kcal/mol | Kd [10]: 74 ± 9.09 µM | ΔG1 [11]: 8.20 kcal/mol | ΔG2 [11]: 5.12 kcal/mol | ΔG′1 [11]: 6.13 kcal/mol | ΔG′2 [11]: 3.06 kcal/mol | ΔΔG [11]: –2.06 kcal/mole | Kd [12]: 13.7 ± 1.82 µM | Kd [13]: 0.34 µM and 0.44 µM | Kd [14]: 137 ± 1.94 µM | Kd [15]: 77.5 ± 19.2 µM | ΔG1 [16]: 5.98 kcal/mol | ΔG2 [16]: 5.12 kcal/mol | ΔG′1 [16]: 5.19 kcal/mol | ΔG′2 [16]: 4.33 kcal/mol | ΔΔG [16]: –0.79 kcal/mole | Kd ([17]; KD^NADPH, 5 μM ecDHFR, ΔF340nm analysis, fitted up to 100 μM NADPH): 1.23 ± 0.06 µM | KD^NADPH weaker than previous reports ([17]; versus 0.34 and […]): 3∼4 fold
